Measurements: ChEMBL document CHEMBL1201862, “PubChem BioAssay data set” (2004)
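These data come from cells grown in 96-well plates and exposed to compound for 48 hours at five concentrations. GI50 = concentration required for 50% inhibition of growth.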 Active and inactive are the calls of the source. No stated cut-off is given here; in the data, active = GI50 up to about 1.1 µM and inactive = higher.

Legend:
Assay in all cases: NCI anticancer screen, dose series, 48 h
Malme-3M = test system: Malme-3M
ACHN = test system: ACHN
SK-MEL-2 = test system: SK-MEL-2
SW-620 = test system: SW-620
DLD-1 = test system: DLD-1
KM12 = test system: KM12
M14 = test system: M14
LXFL 529 = test system: LXFL 529
A549 = test system: A549
DMS-114 = test system: DMS-114
CCRF-CEM = test system: CCRF-CEM
SNB-19 = test system: SNB-19
OVCAR-4 = test system: OVCAR-4
HOP-62 = test system: HOP-62
OVCAR-5 = test system: OVCAR-5
M19-MEL = test system: M19-MEL
RPMI-8226 = test system: RPMI-8226
EKVX = test system: EKVX
UACC-62 = test system: UACC-62
NCI-H522 = test system: NCI-H522
HCT-15 = test system: HCT-15
NCI-H460 = test system: NCI-H460
U-251 = test system: U-251
KM-20L2 = test system: KM-20L2
SNB-78 = test system: SNB-78
TK-10 = test system: TK-10
HT-29 = test system: HT-29
NCI-H23 = test system: NCI-H23
HCC 2998 = test system: HCC 2998
OVCAR-3 = test system: OVCAR-3
SK-MEL-28 = test system: SK-MEL-28
OVCAR-8 = test system: OVCAR-8
CAKI-1 = test system: CAKI-1
SK-OV-3 = test system: SK-OV-3
SK-MEL-5 = test system: SK-MEL-5
HCT-116 = test system: HCT-116
SNB-75 = test system: SNB-75
SF-539 = test system: SF-539
HOP-18 = test system: HOP-18
UO-31 = test system: UO-31
COLO 205 = test system: COLO 205
UACC-257 = test system: UACC-257
XF498 = test system: XF498
SN12C = test system: SN12C
IGROV-1 = test system: IGROV-1
K562 = test system: K562
A498 = test system: A498
SF-295 = test system: SF-295
SF-268 = test system: SF-268
MOLT-4 = test system: MOLT-4
786-0 = test system: 786-0
HL-60 = test system: HL-60
DMS-273 = test system: DMS-273
HOP-92 = test system: HOP-92

COc1ccc2c(OC)c3ccoc3nc2c1O
GI50 (Malme-3M): > 100 µM (inactive)
GI50 (ACHN): > 100 µM (inactive)
GI50 (SK-MEL-2): > 100 µM (inactive)
GI50 (SW-620): > 100 µM (inactive)
GI50 (DLD-1): 78.3 µM (inactive)
GI50 (KM12): > 100 µM (inactive)
GI50 (M14): > 100 µM (inactive)
GI50 (LXFL 529): > 100 µM (inactive)
GI50 (A549): > 100 µM (inactive)
GI50 (DMS-114): > 100 µM (inactive)
GI50 (CCRF-CEM): 43.3 µM (inactive)
GI50 (SNB-19): > 100 µM (inactive)
GI50 (OVCAR-4): > 100 µM (inactive)
GI50 (HOP-62): 49.2 µM (inactive)
GI50 (OVCAR-5): > 100 µM (inactive)
GI50 (M19-MEL): 54.8 µM (inactive)
GI50 (RPMI-8226): 33.7 µM (inactive)
GI50 (EKVX): 53.8 µM (inactive)
GI50 (UACC-62): 77.8 µM (inactive)
GI50 (NCI-H522): > 100 µM (inactive)
GI50 (HCT-15): 37 µM
GI50 (NCI-H460): 85.9 µM (inactive)
GI50 (U-251): > 100 µM (inactive)
GI50 (KM-20L2): > 100 µM (inactive)
GI50 (SNB-78): > 100 µM (inactive)
GI50 (TK-10): > 100 µM (inactive)
GI50 (HT-29): > 100 µM (inactive)
GI50 (NCI-H23): > 100 µM (inactive)
GI50 (HCC 2998): > 100 µM (inactive)
GI50 (OVCAR-3): > 100 µM (inactive)
GI50 (SK-MEL-28): > 100 µM (inactive)
GI50 (OVCAR-8): > 100 µM (inactive)
GI50 (CAKI-1): 93.3 µM (inactive)
GI50 (SK-OV-3): > 100 µM (inactive)
GI50 (SK-MEL-5): > 100 µM (inactive)
GI50 (HCT-116): > 100 µM (inactive)
GI50 (SNB-75): 86.9 µM (inactive)
GI50 (SF-539): > 100 µM (inactive)
GI50 (HOP-18): 0.114 µM (active)
GI50 (UO-31): 63.1 µM (inactive)
GI50 (COLO 205): > 100 µM (inactive)
GI50 (UACC-257): 39.5 µM (inactive)
GI50 (XF498): > 100 µM (inactive)
GI50 (SN12C): > 100 µM (inactive)
GI50 (IGROV-1): > 100 µM (inactive)
GI50 (K562): > 100 µM (inactive)
GI50 (A498): > 100 µM (inactive)
GI50 (SF-295): > 100 µM (inactive)
GI50 (SF-268): > 100 µM (inactive)
GI50 (MOLT-4): 42.2 µM (inactive)
GI50 (786-0): > 100 µM (inactive)

COc1ccc(CSc2nc3ccccc3nc2-c2cccs2)cc1
GI50 (Malme-3M): > 100 µM (inactive)
GI50 (ACHN): > 100 µM (inactive)
GI50 (HL-60): 26.4 µM (inactive)
GI50 (M14): > 100 µM (inactive)
GI50 (DMS-273): > 100 µM (inactive)
GI50 (HOP-92): > 100 µM (inactive)
GI50 (A549): > 100 µM (inactive)
GI50 (DMS-114): 76 µM (inactive)
GI50 (CCRF-CEM): 15.2 µM (inactive)
GI50 (SNB-19): > 100 µM (inactive)
GI50 (OVCAR-4): > 100 µM (inactive)
GI50 (RPMI-8226): > 100 µM (inactive)
GI50 (EKVX): > 100 µM (inactive)
GI50 (U-251): > 100 µM (inactive)
GI50 (SNB-78): > 100 µM (inactive)
GI50 (HT-29): > 100 µM (inactive)
GI50 (NCI-H23): > 100 µM (inactive)
GI50 (OVCAR-3): > 100 µM (inactive)
GI50 (SK-MEL-28): > 100 µM (inactive)
GI50 (OVCAR-8): > 100 µM (inactive)
GI50 (SK-OV-3): > 100 µM (inactive)
GI50 (HCT-116): > 100 µM (inactive)
GI50 (SNB-75): > 100 µM (inactive)
GI50 (SF-539): > 100 µM (inactive)
GI50 (HOP-18): > 100 µM (inactive)
GI50 (UO-31): > 100 µM (inactive)
GI50 (COLO 205): > 100 µM (inactive)
GI50 (UACC-257): 98.4 µM (inactive)
GI50 (XF498): > 100 µM (inactive)
GI50 (SN12C): > 100 µM (inactive)
GI50 (K562): 30.7 µM (inactive)
GI50 (SF-295): > 100 µM (inactive)
GI50 (SF-268): > 100 µM (inactive)
GI50 (MOLT-4): 56.2 µM (inactive)
GI50 (786-0): > 100 µM (inactive)
